Data published in patent publication US7939548B2, “Certain chemical entities, compositions, and methods” (Cytokinetics, Inc., priority 2006, dated 2011).

What follows are compounds tested against T1, chicken gizzard smooth muscle myosin subfragment-1 chemically crosslinked to either cardiac or skeletal actin (Gallus gallus, UniProt P10587) (assay: Smooth muscle myosin ATPase dose response assay (pyruvate kinase/horseradish peroxidase/pyruvate oxidase-coupled)). Conditions: ATPase activity of crosslinked smooth muscle actomyosin (subfragment-1); amplex red fluorescence; 4 parameter fit; read-out: IC50 Arithmetic Mean.
T1 construct: chicken gizzard smooth muscle myosin subfragment-1
Assay type: biochemical
Procedure: Screening assays were performed using a pyruvate kinase and lactate dehydrogenase-coupled ATPase assay containing the following reagents: Potassium PIPES (50 mM), MgCl2 (3 mM), KCl (100 mM), ATP (0.15 mM), DTT (1 mM), BSA (0.1 mg/ml), NADH (0.5 mM), PEP (1.5 mM), pyruvate kinase (4 U/ml), lactate dehydrogenase (8 U/ml), and antifoam (50 ppm) (concentrations expressed are final assay concentrations). The pH was adjusted to 6.80 at 22 °C by addition of potassium hydroxide. Lead optimization assays were performed with a more sensitive pyruvate kinase/horseradish peroxidase/pyruvate oxidase-coupled ATPase assay containing the following reagents: Potassium PIPES (12 mM), MgCl2 (2 mM), KCl (100 mM), ATP (0.15 mM), BSA (0.05 mg/ml), potassium phosphate (2 mM), amplex red (0.1 mM), PEP (0.1 mM), pyruvate kinase (4 U/ml), horseradish peroxidase (0.5 U/ml), pyruvate oxidase (0.5 U/ml), and antifoam (50 ppm) (concentrations expressed are final assay concentrations). The pH was adjusted to 7.00 at 22 °C by addition of potassium hydroxide.
The protein components specific to this assay are chicken gizzard smooth muscle myosin subfragment-1 that has been chemically crosslinked to either cardiac or skeletal actin using an excess of 1-Ethyl-3-[3-dimethylaminopropyl]carbodiimide hydrochloride and N-hydroxysuccinimide. The exact concentration of the crosslinked smooth muscle myosin in the assay is determined empirically, by titration to achieve a desired rate of ATP hydrolysis. The concentration varies between protein preparations due to variations in the fraction of active molecules in each preparation.
Compound dose response assays are performed by first preparing a dilution series of test compound, each with an assay mixture containing potassium PIPES, MgCl2, KCl, ATP, BSA, potassium phosphate, amplex red, PEP, crosslinked smooth muscle actomyosin (subfragment-1), antifoam, and water. The assay is started by adding an equal volume of solution containing potassium Pipes, MgCl2, KCl, BSA, potassium phosphate, pyruvate kinase, horseradish peroxidase, pyruvate oxidase, antifoam, and water. ATP hydrolysis is monitored by measuring the fluorescence of amplex red (excitation at 480 nm, emission at 615 nm). The resulting dose response curve is fit by the 4 parameter equation y=Bottom+((Top-Bottom)/(1+((IC50/X)^Hill))). The IC50 is defined as the concentration at which ATPase activity is midway between the top and bottom of the dose response curve.

Compound	IC50 [µM]
COC(=O)c1ccc(NCCCCC(N)=O)nc1NCCc1cccc(F)c1 [methyl 6-[(4-carbamoylbutyl)amino]-2-{[2-(3-fluorophenyl)ethyl]amino}pyridine-3-carboxylate]	44.3
COCCCc1ccc(C(=O)NCc2cccnc2)c(NCCc2cccc(F)c2)n1 [(2-{[2-(3-fluorophenyl)ethyl]amino}-6-(3-methoxypropyl)(3-pyridyl))-N-(3-pyridylmethyl)carboxamide]	8.18
C/C=C/c1nc(NCCc2cccc(F)c2)c(C(=O)NCc2cccnc2CNC(=O)OC(C)(C)C)cc1F [(6-((1E)prop-1-enyl)-5-fluoro-2-{[2-(3-fluorophenyl)ethyl]amino}(3-pyridyl))-N-[(2-{[(tert-butoxy)carbonylamino]methyl}(3-pyridyl))methyl]carboxamide]	11.7
C/C=C/c1nc(NCCc2cccc(F)c2)c(C(=O)NCc2cccnc2CN)cc1F [(6-((1E)prop-1-enyl)-5-fluoro-2-{[2-(3-fluorophenyl)ethyl]amino}(3-pyridyl))-N-{[2-(aminomethyl)(3-pyridyl)]methyl}carboxamide]	0.0805
N#Cc1ccccc1-c1cnc(NCCc2cccc(F)c2)c(C(=O)NCc2cccc(CN)n2)c1 [N-{[6-(aminomethyl)(2-pyridyl)]methyl}(5-(2-cyanophenyl)-2-{[2-(3-fluorophenyl)ethyl]amino}(3-pyridyl))carboxamide]	6.03
C/C=C(/C)c1ccc(C(=O)NCc2cccnc2)c(NCCc2cccc(F)c2)n1 [(6-((1Z)-1-methylprop-1-enyl)-2-{[2-(3-fluorophenyl)ethyl]amino}(3-pyridyl))-N-(3-pyridylmethyl)carboxamide]	10.5
CC(=O)N(C)c1ccc(C(=O)NCc2cccnc2)c(NCCc2cccc(F)c2)n1 [N-(6-{[2-(3-fluorophenyl)ethyl]amino}-5-[N-(3-pyridylmethyl)carbamoyl](2-pyridyl))-N-methylacetamide]	33.5
O=C(O)c1cc(Br)cnc1NCCc1cccc(F)c1 [5-bromo-2-{[2-(3-fluorophenyl)ethyl]amino}pyridine-3-carboxylic acid]	11.2
NCc1cccc(CNC(=O)c2cc(-c3ccncc3)cnc2NCCc2cccc(F)c2)n1 [N-{[6-(aminomethyl)(2-pyridyl)]methyl}(2-{[2-(3-fluorophenyl)ethyl]amino}-5-(4-pyridyl)(3-pyridyl))carboxamide]	9.84
O=C(NCc1cccnc1)c1cccnc1NCCc1cccc(F)c1 [(2-{[2-(3-fluorophenyl)ethyl]amino}(3-pyridyl))-N-(3-pyridylmethyl)carboxamide]	26.8
O=C(NCc1cccnc1)c1ccc(NCc2ccccn2)nc1NCCc1cccc(F)c1 [(2-{[2-(3-fluorophenyl)ethyl]amino}-6-[(2-pyridylmethyl)amino](3-pyridyl))-N-(3-pyridylmethyl)carboxamide]	10.8
NC(=O)CCCCNc1ccc(C(=O)NCc2cccnc2)c(NCCc2cccc(F)c2)n1 [(6-[(4-carbamoylbutyl)amino]-2-{[2-(3-fluorophenyl)ethyl]amino}(3-pyridyl))-N-(3-pyridylmethyl)carboxamide]	6.74
O=C(CCCCNc1ccc(C(=O)NCc2cccnc2)c(NCCc2cccc(F)c2)n1)NCc1cccnc1 [5-[(6-{[2-(3-fluorophenyl)ethyl]amino}-5-[N-(3-pyridylmethyl)carbamoyl](2-pyridyl))amino]-N-(3-pyridylmethyl)pentanamide]	49.2
NCc1ncccc1CNC(=O)c1cc(F)cnc1NCCc1cccc(F)c1 [N-{[2-(aminomethyl)(3-pyridyl)]methyl}(5-fluoro-2-{[2-(3-fluorophenyl)ethyl]amino}(3-pyridyl))carboxamide]	2.69
C/C=C/c1nc(NCCc2cccc(F)c2)c(C(=O)NCc2cccnc2)cc1Br [(6-((1E)prop-1-enyl)-5-bromo-2-{[2-(3-fluorophenyl)ethyl]amino}(3-pyridyl))-N-(3-pyridylmethyl)carboxamide]	0.78
CNC(=O)CNC(=O)c1cc(-c2ccccc2)cnc1NCCc1cccc(F)c1 [2-[(2-{[2-(3-fluorophenyl)ethyl]amino}-5-phenyl(3-pyridyl))carbonylamino]-N-methylacetamide]	15

More lines, in order of falling IC50, values ahead:

IC50 [µM]	Compound
44.1	CNC(=O)c1ccc(C(=O)NCc2cccnc2)c(NCCc2cccc(F)c2)n1 [(2-{[2-(3-fluorophenyl)ethyl]amino}-6-(N-methylcarbamoyl)(3-pyridyl))-N-(3-pyridylmethyl)carboxamide]
42.8	NC(=O)CCCNc1ccc(C(=O)NCc2cccnc2)c(NCCc2cccc(F)c2)n1 [(6-[(3-carbamoylpropyl)amino]-2-{[2-(3-fluorophenyl)ethyl]amino}(3-pyridyl))-N-(3-pyridylmethyl)carboxamide]
38	CNC(=O)CCCCNc1ccc(C(=O)NCc2cccnc2)c(NCCc2cccc(F)c2)n1 [5-[(6-{[2-(3-fluorophenyl)ethyl]amino}-5-[N-(3-pyridylmethyl)carbamoyl](2-pyridyl))amino]-N-methylpentanamide]
16	NCc1cccc(CNC(=O)c2cc(-c3ccccn3)cnc2NCCc2cccc(F)c2)n1 [N-{[6-(aminomethyl)(2-pyridyl)]methyl}(2-{[2-(3-fluorophenyl)ethyl]amino}-5-(2-pyridyl)(3-pyridyl))carboxamide]
15	NCc1cccc(CNC(=O)c2cc(Br)cnc2NCCc2cccc(F)c2)n1 [N-{[6-(aminomethyl)(2-pyridyl)]methyl}(5-bromo-2-{[2-(3-fluorophenyl)ethyl]amino}(3-pyridyl))carboxamide]
14.9	COC(=O)c1cc(C#N)cnc1NCCc1cccc(F)c1 [methyl 5-cyano-2-{[2-(3-fluorophenyl)ethyl]amino}pyridine-3-carboxylate]
12.7	N#Cc1cnc(NCCc2cccc(F)c2)c(C(=O)NCc2ccccn2)c1 [(5-cyano-2-{[2-(3-fluorophenyl)ethyl]amino}(3-pyridyl))-N-(2-pyridylmethyl)carboxamide]
10.9	CNc1ccc(C(=O)NCc2cccnc2)c(NCCc2cccc(F)c2)n1 [(2-{[2-(3-fluorophenyl)ethyl]amino}-6-(methylamino)(3-pyridyl))-N-(3-pyridylmethyl)carboxamide]
8.47	O=C(NCc1cccnc1)c1ccc(NCCCO)nc1NCCc1cccc(F)c1 [(2-{[2-(3-fluorophenyl)ethyl]amino}-6-[(3-hydroxypropyl)amino](3-pyridyl))-N-(3-pyridylmethyl)carboxamide]
7.62	COCCNc1ccc(C(=O)NCc2cccnc2)c(NCCc2cccc(F)c2)n1 [(2-{[2-(3-fluorophenyl)ethyl]amino}-6-[(2-methoxyethyl)amino](3-pyridyl))-N-(3-pyridylmethyl)carboxamide]
5.61	O=C(NCc1cccnc1)c1ccc(NCc2cccnc2)nc1NCCc1cccc(F)c1 [(2-{[2-(3-fluorophenyl)ethyl]amino}-6-[(3-pyridylmethyl)amino](3-pyridyl))-N-(3-pyridylmethyl)carboxamide]
4.92	CN(C)c1ccc(C(=O)NCc2cccnc2)c(NCCc2cccc(F)c2)n1 [(6-(dimethylamino)-2-{[2-(3-fluorophenyl)ethyl]amino}(3-pyridyl))-N-(3-pyridylmethyl)carboxamide]
4.35	COC(=O)c1ccc(C(=O)NCc2cccnc2)c(NCCc2cccc(F)c2)n1 [methyl 6-{[2-(3-fluorophenyl)ethyl]amino}-5-[N-(3-pyridylmethyl)carbamoyl]pyridine-2-carboxylate]
3.45	COC(=O)/C=C(\C)c1ccc(C(=O)NCc2cccnc2)c(NCCc2cccc(F)c2)n1 [methyl (2E)-3-(6-{[2-(3-fluorophenyl)ethyl]amino}-5-[N-(3-pyridylmethyl)carbamoyl](2-pyridyl))but-2-enoate]
2.77	CC(C)=C(C)c1ccc(C(=O)NCc2cccnc2)c(NCCc2cccc(F)c2)n1 [(6-(1,2-dimethylprop-1-enyl)-2-{[2-(3-fluorophenyl)ethyl]amino}(3-pyridyl))-N-(3-pyridylmethyl)carboxamide]
0.702	C=C(OCC)c1ccc(C(=O)NCc2cccnc2)c(NCCc2cccc(F)c2)n1 [(6-(1-ethoxyvinyl)-2-{[2-(3-fluorophenyl)ethyl]amino}(3-pyridyl))-N-(3-pyridylmethyl)carboxamide]
0.347	CC(C)=Cc1ccc(C(=O)NCc2cccnc2)c(NCCc2cccc(F)c2)n1 [(2-{[2-(3-fluorophenyl)ethyl]amino}-6-(2-methylprop-1-enyl)(3-pyridyl))-N-(3-pyridylmethyl)carboxamide]
